What was measured:
[1] = test system: THP-1 cells; experiment: THP-1 cells: morphology, 3H-thymidine uptake, metalloproteinase expression; assay type: cell-based, human
[2] = test system: female Swiss Webster mice; experiment: Matrigel assay of angiogenesis; assay type: in vivo, mouse; conditions: 100 ng/ml in Matrigel, s.c., three separate studies, vs vehicle
Protocol: Animals were purchased from Harlan Sprague Dawley (Indianapolis, Ind.) and were housed according to NIH guidelines. Protocols were in compliance with institutional guidelines. Matrigel (Collaborative Biomedical, Bedford, Mass.) was mixed with relaxin to a final concentration of 100 ng/ml, or mixed with the identical volume of citrate buffer, on ice. […] was injected subcutaneously into the flank of female Swiss Webster mice. At 11 days, the Matrigel plugs were harvested, fixed, and stained with H & E (hematoxylin and eosin) for assessment of new blood vessel ingrowth. Vessel growth was scored on a 0-5 scale: 0=no infiltration; 1=minor infiltration; 2 =3-5 cell layers infiltrating only margins of the plug; 3=5-10 cell layers infiltrating margins with some areas of deeper infiltration; <25% of plug infiltrated; 4=Many areas of deep cellular infiltration; 25-50% of plug infiltrated; 5=50-100% of plug infiltrated. Endothelial cells preferentially migrate into the basement membrane matrix.
The ability of relaxin to induce new blood vessel growth in vivo was tested in the murine Matrigel system for assessing angiogenesis. Passaniti et al. (1992) Lab. Invest. 67:519-528. […] At 10 days, Matrigel plugs were harvested, processed for histology, and H & E sections scored for vessel ingrowth in blinded fashion. […]

[3] = test system: ovariectomized or sham ovariectomized rats; experiment: Chronic infusion of rhRLX on renal function in ovariectomized or sham ovariectomized rats; assay type: in vivo, rat; conditions: day 5 of infusion 4 μg/hour; comparable in ovariectomized and sham ovariectomized rats
Excerpt: The details of the surgical procedures have been previously described. See, e.g., Conrad (1984) Kidney Int. 26:24-29; and Danielson and Conrad (1995) J. Clin. Invest. 96:482-490. […] The bladder catheter, a silastic-covered stainless steel cannula, was sewn into the urinary bladder with a purse-string suture and exteriorized through the ventral abdominal wall. This catheter was then plugged allowing the animal to urinate through the urethra while in her home cage. In the ovariectomized and sham ovariectomized animals, the ovaries were first ligated and then excised, or briefly manipulated, respectively, via a small incision made in the lateral abdominal wall immediately after the insertion of vascular and bladder catheters. All surgeries were conducted using aseptic technique. At least a 7-day recovery period was allowed before experimentation.
Six female rats each were subjected either to ovariectomy or sham ovariectomy immediately after the implantation of vascular and bladder catheters. Seven days later, renal function and MAP were assessed before the insertion of osmotic minipumps containing rhRLX. On day 5 of the relaxin infusion (4 μg/hour), renal function and MAP were again determined.

[4] = test system: small renal arteries; experiment: Myogenic reactivity of isolated small renal arteries, pressurized arteriograph; assay type: in vivo, rat; conditions: female rats administered rhRLX for 5 days (FIG. 14)
Excerpt: Myogenic reactivity is a dynamic and complex integrative vascular behavior which can be assessed in small renal arteries utilizing the pressurized arteriograph. Equivalent tone was first established in all vessels by constricting them to 75% of their baseline diameter at 60 mm Hg using the adrenergic agonist, phenylephrine. Next the arteries which began at an initial pressure of 20 mm Hg were subjected to a rapid increase in transmural pressure of 20 mm Hg increments in the absence of flow. […] This blunted myogenic reactivity following rhRLX treatment of nonpregnant rats mimics pregnancy (Gandley RE, Conrad KP, McLaughlin MK. Am J Physiol Integrative Comp Physiol 280:R1-R7, 2001). Morever, as during pregnancy, this blunted myogenic reactivity can be reversed by adding inhibitors of nitric oxide to the vessel bath.

[5] = test system: small mesenteric arteries; experiment: Myogenic reactivity of small mesenteric arteries; assay type: in vivo, rat; conditions: female rats chronically administered rhRLX (FIG. 15)
[6] = test system: human cardiac cells; experiment: VEGF protein secreted by human cardiac cells; assay type: cell-based; conditions: 100 ng/ml, 24 hr
Protocol: Consistent with RT-PCR data, relaxin stimulated a small but significant dose-related increase in levels of VEGF protein secreted by human cardiac. Cells were seeded in 35 mm wells at 2.5×10^5 cells per well 24 hours prior to treatment with relaxin. Cells were washed twice with SmBM (no supplements) and incubated for 2 hr with SmBM treatment medium (containing 400 pg/ml bFGF, gentamycin, amphoteracin B, and 2% fetal calf serum) at 37° C., 5% CO2. The medium was then replaced with SmBM treatment medium without relaxin or with concentrations of relaxin from 0.1 ng/ml to 100 ng/ml. Cells were then incubated for 24 hr (37° C., 5% CO2).

[7] = test system: Rat aortic adventitial fibroblasts; experiment: Collagen and fibronectin expression by adventitial fibroblasts; assay type: cell-based; conditions: rhRlx 10 ng/ml
Protocol: Aortic adventitial fibroblasts from normal adult Sprague/Dawley rats were explanted by carefully dissecting the adventitia away from the media and culturing 1 mm^3 pieces in Dulbecco's modified Eagles Medium (DMEM), plus 10% bovine fetal calf serum. When cultures were confluent, fibroblasts were dispersed with trypsin and passaged once prior to use in experiments. Fibroblasts were seeded at 10^5 cells/cm^2 in DMEM+10% FBS in 48-well plates for experiments and assayed for collagen and fibronectin expression, as previously described (Unemori et al. (1996) J. Clin. Invest. 98:2739-2745). […] Half of the cultures were also treated simultaneously with 10 ng/ml of rhRlx. Proteins were biosynthetically labeled with ^3H-proline (25 μCi/ml) (Amersham Corp., Arlington Heights, Ill.), in the presence of ascorbate (50 μg/ml) and β-aminopropionitrile (80 μg/ml), and conditioned media collected 24 hours later. Media were electrophoresed on SDS-PAGE, and the density of collagen and fibronectin bands was determined by densitometric scanning using a digital imaging system (Alpha Innotech Corp, San Leandro, Calif.).

rhRLX: recombinant human relaxin, identical in amino acid sequence to the product of the human H2 gene; A chain of 24, B chain of 29 amino acids
morphological changes, such as adherence to plastic or aggregation [1]: no observable morphological changes | vessel ingrowth into Matrigel plugs [2]: significantly more vessel ingrowth | effect on ERPF [3]: profound rise | effect on ERVR [3]: fall | effect on GFR [3]: profound rise | myogenic reactivity ex vivo [4]: reduced myogenic reactivity | myogenic reactivity [5]: reduced myogenic reactivity | VEGF secretion, maximum induction over control levels [6]: 155% | decrease of TGF-β-induced fibronectin over-expression [7]: 28±6% | inhibition of TGF-β-induced collagen over-expression [7]: 21±5%
